Data: ChEMBL document CHEMBL4043147, “9,19-Cycloartenol glycoside G3 from Cimicifuga simplex regulates immune responses by modulating Th17/Treg ratio” (Bioorg Med Chem, 2017)
Activity calls are given as the source filed them. The rule behind the calls is not given here.

Key:
Splenocyte = experiment: Cytotoxicity against mouse splenocytes after 48 hrs by MTT assay; assay type: cell-based
[1] = Inhibition of C57BL/6 mouse CD4-positive T cell differentiation at 50 uM relative to control; assay type: functional; details: C57BL/6, CD4-positive T cell
[2] = Inhibition of C57BL/6 mouse CD4-positive T cell differentiation at 25 uM relative to control; assay type: functional; details: C57BL/6, CD4-positive T cell
[3] = Inhibition of C57BL/6 mouse CD4-positive T cell differentiation at 12.5 uM relative to control; assay type: functional; details: C57BL/6, CD4-positive T cell
[4] = Inhibition of C57BL/6 mouse CD4-positive T cell differentiation at 6.25 uM relative to control; assay type: functional; details: C57BL/6, CD4-positive T cell
[5] = Inhibition of C57BL/6 mouse CD4-positive T cell differentiation; assay type: functional, cell-based; details: C57BL/6, CD4-positive T cell
CD4-positive T cell [6] = experiment: Inhibition of C57BL/6 mouse CD4-positive T cell differentiation assessed as decrease in RORgammat mRNA level 0.1 to 10 uM by real-time PCR analysis; assay type: functional, cell-based
CD4-positive T cell [7] = experiment: Inhibition of C57BL/6 mouse CD4-positive T cell differentiation assessed as decrease in T-bet mRNA level 0.1 to 10 uM by real-time PCR analysis; assay type: functional, cell-based
CD4-positive T cell [8] = experiment: Inhibition of C57BL/6 mouse CD4-positive T cell differentiation assessed as decrease in GATA-3 mRNA level 0.1 to 10 uM by real-time PCR analysis; assay type: functional, cell-based
CD4-positive T cell [9] = experiment: Inhibition of C57BL/6 mouse CD4-positive T cell differentiation assessed as decrease in FoxP3 mRNA level 0.1 to 10 uM by real-time PCR analysis; assay type: functional, cell-based
Th17 [10] = experiment: Decrease in IL-17A mRNA level in C57BL/6 mouse Th17 cells 0.1 to 10 uM by real-time PCR analysis; assay type: functional, cell-based
Treg cell [11] = experiment: Increase in IL-10 mRNA level in C57BL/6 mouse Treg cells by real-time PCR analysis; assay type: functional, cell-based
Th17 [12] = experiment: Reduction in IL-17A production in C57BL/6 mouse Th17 cells at 10 uM by ELISA; assay type: functional, cell-based
Th1 = experiment: Reduction in IFN-gamma production in C57BL/6 mouse Th1 cells at 10 uM by ELISA; assay type: functional, cell-based
Treg cell [13] = experiment: Reduction in IL-10 production in C57BL/6 mouse Treg cells at 10 uM by ELISA; assay type: functional, cell-based
Treg cell [14] = experiment: Increase in IL-10 production in C57BL/6 mouse Treg cells by ELISA; assay type: functional, cell-based
[15] = target: T1, Tyrosine-protein kinase JAK1/JAK2 (Mus musculus) (UniProt P52332+Q62120); experiment: Inhibition of JAK1/JAK2 in C57BL/6 mouse CD4-positive T cell assessed as reduction in IFNgamma-induced STAT1 phosphorylation at 1 to 10 uM pretreated for 1 hr followed by IFNgamma addition after 15 mins by Western blot analysis
[16] = target: T1, Tyrosine-protein kinase JAK1/JAK2 (Mus musculus); experiment: Inhibition of JAK1/JAK2 in C57BL/6 mouse CD4-positive T cell assessed as reduction in IFNgamma-induced STAT3 phosphorylation at 1 to 10 uM pretreated for 1 hr followed by IFNgamma addition after 15 mins by Western blot analysis
Mus musculus [17] = organism: Mus musculus; experiment: Inhibition of […]/TYK2 in C57BL/6 mouse CD4-positive T cell assessed as reduction in IL-12-induced STAT1 phosphorylation at 1 to 10 uM pretreated for 1 hr followed by IL-12 addition after 30 mins by Western blot analysis
Mus musculus [18] = organism: Mus musculus; experiment: Inhibition of […]/TYK2 in C57BL/6 mouse CD4-positive T cell assessed as reduction in IL-12-induced STAT4 phosphorylation at 1 to 10 uM pretreated for 1 hr followed by IL-12 addition after 30 mins by Western blot analysis
[19] = target: Tyrosine-protein kinase JAK1/JAK3 (Mus musculus) (UniProt P52332+Q62137); experiment: Inhibition of JAK1/JAK3 in C57BL/6 mouse CD4-positive T cell assessed as reduction in IL-4-induced STAT6 phosphorylation at 1 to 10 uM pretreated for 1 hr followed by IL-4 addition after 15 mins by Western blot analysis
Mus musculus [20] = experiment: (§1) Anti-inflammatory activity in IL-23 induced mouse psoriasis-like skin inflammation model assessed as reduction in epidermal hyperplasia by measuring acanthosis at 2 to 10 uM applied topically starting 1 day prior to IL-23 induction and continuing every other day for 14 days measured after 24 hrs post last dose by hematoxylin and eosin staining based assay; assay type: functional
Mus musculus [21] = experiment: as §1, with “dermal inflammatory infiltrates” for “epidermal hyperplasia by measuring acanthosis”; assay type: functional
Mus musculus [22] = experiment: as §1, with “IFN-gamma mRNA levels” for “epidermal hyperplasia by measuring acanthosis”, “real-time PCR analysis” for “hematoxylin and eosin staining based assay”; assay type: functional
Mus musculus [23] = experiment: as §1, with “IL-17A mRNA levels” for “epidermal hyperplasia by measuring acanthosis”, “real-time PCR analysis” for “hematoxylin and eosin staining based assay”; assay type: functional
Mus musculus [24] = experiment: as §1, with “IL-22 mRNA levels” for “epidermal hyperplasia by measuring acanthosis”, “real-time PCR analysis” for “hematoxylin and eosin staining based assay”; assay type: functional
Mus musculus [25] = experiment: as §1, with “IL-4 mRNA levels” for “epidermal hyperplasia by measuring acanthosis”, “real-time PCR analysis” for “hematoxylin and eosin staining based assay”; assay type: functional
Mus musculus [26] = experiment: as §1, with “CXCL1 mRNA levels” for “epidermal hyperplasia by measuring acanthosis”, “real-time PCR analysis” for “hematoxylin and eosin staining based assay”; assay type: functional
Mus musculus [27] = experiment: as §1, with “CCL17 mRNA levels” for “epidermal hyperplasia by measuring acanthosis”, “real-time PCR analysis” for “hematoxylin and eosin staining based assay”; assay type: functional
Mus musculus [28] = experiment: as §1, with “CCL20 mRNA levels” for “epidermal hyperplasia by measuring acanthosis”, “real-time PCR analysis” for “hematoxylin and eosin staining based assay”; assay type: functional
Mus musculus [29] = experiment: as §1, with “CCL27 mRNA levels” for “epidermal hyperplasia by measuring acanthosis”, “real-time PCR analysis” for “hematoxylin and eosin staining based assay”; assay type: functional
Mus musculus [30] = experiment: as §1, with “CCR6 mRNA levels” for “epidermal hyperplasia by measuring acanthosis”, “real-time PCR analysis” for “hematoxylin and eosin staining based assay”; assay type: functional
Mus musculus [31] = experiment: as §1, with “IL-1alpha mRNA levels” for “epidermal hyperplasia by measuring acanthosis”, “real-time PCR analysis” for “hematoxylin and eosin staining based assay”; assay type: functional
Mus musculus [32] = experiment: as §1, with “IL-1beta mRNA levels” for “epidermal hyperplasia by measuring acanthosis”, “real-time PCR analysis” for “hematoxylin and eosin staining based assay”; assay type: functional
Mus musculus [33] = experiment: as §1, with “IL-6 mRNA levels” for “epidermal hyperplasia by measuring acanthosis”, “real-time PCR analysis” for “hematoxylin and eosin staining based assay”; assay type: functional
Mus musculus [34] = experiment: as §1, with “TNF-alpha mRNA levels” for “epidermal hyperplasia by measuring acanthosis”, “real-time PCR analysis” for “hematoxylin and eosin staining based assay”; assay type: functional
Mus musculus [35] = experiment: as §1, with “COX2 mRNA levels” for “epidermal hyperplasia by measuring acanthosis”, “real-time PCR analysis” for “hematoxylin and eosin staining based assay”; assay type: functional
Mus musculus [36] = experiment: as §1, with “IL-10 mRNA levels” for “epidermal hyperplasia by measuring acanthosis”, “real-time PCR analysis” for “hematoxylin and eosin staining based assay”; assay type: functional
CD4-positive T cell [37] = experiment: Reduction in RORgammat/IL-17 expression in human PBMC derived allogeneic CD4-positive T cells co-cultured with […] CD14 positive monocyte derived dendritic cells at 10 uM by flow cytometric analysis; assay type: functional, cell-based
CD4-positive T cell [38] = experiment: Reduction in FoxP3/IL-10 expression in human PBMC derived allogeneic CD4-positive T cells co-cultured with […] CD14 positive monocyte derived dendritic cells at 10 uM by flow cytometric analysis; assay type: functional, cell-based
CD4-positive T cell [39] = experiment: Reduction in ratio of RORgammat/IL-17 expression to FoxP3/IL-10 expression in human PBMC derived allogeneic CD4-positive T cells co-cultured with […] CD14 positive monocyte derived dendritic cells at 10 uM by flow cytometric analysis; assay type: functional, cell-based

T1 sequence (P52332 whole entry, looked up): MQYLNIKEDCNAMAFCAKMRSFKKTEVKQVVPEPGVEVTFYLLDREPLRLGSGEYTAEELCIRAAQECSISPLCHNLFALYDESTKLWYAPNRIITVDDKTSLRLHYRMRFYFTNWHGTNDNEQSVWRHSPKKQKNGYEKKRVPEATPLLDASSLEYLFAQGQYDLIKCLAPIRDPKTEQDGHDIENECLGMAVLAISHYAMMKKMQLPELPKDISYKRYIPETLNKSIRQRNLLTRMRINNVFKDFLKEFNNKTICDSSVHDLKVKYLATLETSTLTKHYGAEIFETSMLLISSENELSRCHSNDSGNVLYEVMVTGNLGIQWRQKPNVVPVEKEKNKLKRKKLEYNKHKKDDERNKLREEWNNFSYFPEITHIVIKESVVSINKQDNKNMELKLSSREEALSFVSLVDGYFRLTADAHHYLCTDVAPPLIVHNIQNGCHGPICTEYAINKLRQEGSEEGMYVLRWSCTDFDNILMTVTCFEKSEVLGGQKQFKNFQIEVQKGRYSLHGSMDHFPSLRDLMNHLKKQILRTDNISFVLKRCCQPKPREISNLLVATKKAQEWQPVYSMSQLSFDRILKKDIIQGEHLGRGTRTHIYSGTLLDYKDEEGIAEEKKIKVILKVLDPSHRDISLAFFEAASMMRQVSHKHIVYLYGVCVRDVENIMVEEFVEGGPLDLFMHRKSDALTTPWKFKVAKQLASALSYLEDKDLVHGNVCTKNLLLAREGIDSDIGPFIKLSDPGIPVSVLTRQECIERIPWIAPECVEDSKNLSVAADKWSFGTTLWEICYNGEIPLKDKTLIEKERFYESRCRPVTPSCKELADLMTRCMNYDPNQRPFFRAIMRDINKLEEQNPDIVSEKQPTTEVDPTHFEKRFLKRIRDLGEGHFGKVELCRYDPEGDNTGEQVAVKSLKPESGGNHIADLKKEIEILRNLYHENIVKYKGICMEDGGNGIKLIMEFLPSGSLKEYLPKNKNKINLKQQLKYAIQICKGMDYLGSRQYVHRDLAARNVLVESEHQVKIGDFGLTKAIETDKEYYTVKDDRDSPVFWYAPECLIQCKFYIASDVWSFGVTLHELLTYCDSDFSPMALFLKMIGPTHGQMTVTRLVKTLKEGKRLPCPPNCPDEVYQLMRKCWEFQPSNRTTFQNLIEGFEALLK
T1 sequence (Q62120 whole entry, looked up): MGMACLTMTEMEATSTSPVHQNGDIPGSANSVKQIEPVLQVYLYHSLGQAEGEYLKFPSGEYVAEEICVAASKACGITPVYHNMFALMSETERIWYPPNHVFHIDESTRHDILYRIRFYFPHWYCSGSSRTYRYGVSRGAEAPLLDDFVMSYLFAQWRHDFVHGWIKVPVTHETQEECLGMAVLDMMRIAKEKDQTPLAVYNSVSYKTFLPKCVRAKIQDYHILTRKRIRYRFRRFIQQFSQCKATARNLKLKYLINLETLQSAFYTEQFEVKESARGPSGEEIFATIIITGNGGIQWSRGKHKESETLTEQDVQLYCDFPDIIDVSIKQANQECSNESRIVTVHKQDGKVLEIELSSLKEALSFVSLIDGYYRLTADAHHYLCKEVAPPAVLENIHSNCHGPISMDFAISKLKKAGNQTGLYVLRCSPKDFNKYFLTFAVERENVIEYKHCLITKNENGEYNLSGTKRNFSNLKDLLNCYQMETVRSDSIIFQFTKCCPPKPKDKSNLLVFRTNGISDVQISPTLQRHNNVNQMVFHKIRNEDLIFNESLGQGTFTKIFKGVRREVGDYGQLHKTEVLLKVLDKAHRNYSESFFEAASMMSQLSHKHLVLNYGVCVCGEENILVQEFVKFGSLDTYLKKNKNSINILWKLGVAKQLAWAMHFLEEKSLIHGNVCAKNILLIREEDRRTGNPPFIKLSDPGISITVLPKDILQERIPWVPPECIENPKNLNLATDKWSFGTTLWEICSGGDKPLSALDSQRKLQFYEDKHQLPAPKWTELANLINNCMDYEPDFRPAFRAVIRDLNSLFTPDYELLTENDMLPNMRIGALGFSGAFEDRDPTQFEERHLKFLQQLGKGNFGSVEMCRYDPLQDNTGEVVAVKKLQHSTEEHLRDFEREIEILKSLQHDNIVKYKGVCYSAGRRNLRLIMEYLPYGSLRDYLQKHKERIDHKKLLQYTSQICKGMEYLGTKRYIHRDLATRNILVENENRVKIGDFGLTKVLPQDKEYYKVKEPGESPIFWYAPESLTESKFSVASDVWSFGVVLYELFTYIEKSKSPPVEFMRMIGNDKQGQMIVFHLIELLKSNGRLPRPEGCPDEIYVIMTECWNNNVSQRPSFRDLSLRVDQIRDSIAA
Chain of Tyrosine-protein kinase JAK1/JAK3 (Mus musculus) (P52332 whole entry, looked up): as the sequence (P52332 whole entry, looked up) above
Chain of Tyrosine-protein kinase JAK1/JAK3 (Mus musculus) (Q62137 whole entry, looked up): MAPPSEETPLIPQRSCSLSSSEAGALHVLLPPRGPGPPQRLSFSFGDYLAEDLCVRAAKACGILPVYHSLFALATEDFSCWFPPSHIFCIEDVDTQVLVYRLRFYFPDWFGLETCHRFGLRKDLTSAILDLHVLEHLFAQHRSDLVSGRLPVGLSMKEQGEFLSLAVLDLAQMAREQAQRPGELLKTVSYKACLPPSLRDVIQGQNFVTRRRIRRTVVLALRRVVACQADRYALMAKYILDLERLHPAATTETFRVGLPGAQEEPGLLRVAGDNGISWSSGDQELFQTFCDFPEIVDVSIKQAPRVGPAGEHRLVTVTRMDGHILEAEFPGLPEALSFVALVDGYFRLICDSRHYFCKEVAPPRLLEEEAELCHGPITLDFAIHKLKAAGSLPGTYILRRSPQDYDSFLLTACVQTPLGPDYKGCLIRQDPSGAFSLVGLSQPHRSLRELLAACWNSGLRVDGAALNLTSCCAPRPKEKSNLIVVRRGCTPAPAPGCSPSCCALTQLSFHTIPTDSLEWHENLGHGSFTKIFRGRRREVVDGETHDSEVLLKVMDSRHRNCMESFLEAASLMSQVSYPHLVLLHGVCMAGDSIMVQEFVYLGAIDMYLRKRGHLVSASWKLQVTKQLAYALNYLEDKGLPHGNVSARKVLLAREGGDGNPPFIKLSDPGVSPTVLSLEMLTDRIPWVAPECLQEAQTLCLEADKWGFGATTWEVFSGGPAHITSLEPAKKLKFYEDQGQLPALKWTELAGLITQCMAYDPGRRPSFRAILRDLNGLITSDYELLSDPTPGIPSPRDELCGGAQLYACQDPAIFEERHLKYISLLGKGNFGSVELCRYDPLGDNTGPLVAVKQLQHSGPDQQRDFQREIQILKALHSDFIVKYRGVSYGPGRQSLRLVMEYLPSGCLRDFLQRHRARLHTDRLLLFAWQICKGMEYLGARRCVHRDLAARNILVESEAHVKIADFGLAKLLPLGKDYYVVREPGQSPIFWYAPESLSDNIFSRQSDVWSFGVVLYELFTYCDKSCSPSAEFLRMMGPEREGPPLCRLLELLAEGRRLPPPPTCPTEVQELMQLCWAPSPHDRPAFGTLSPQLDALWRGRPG

For `CC(=O)O[C@@H]1C[C@@]23C[C@@]24CC[C@H](O[C@@H]2O[C@H](CO)[C@H](O)[C@H](O)[C@H]2O)C(C)(C)[C@@H]4CC[C@H]3[C@]2(C)C[C@]3(O)O[C@H](C(=O)[C@@H]4OC4(C)C)[C@@H](C)[C@@H]3[C@@]12C`, the CC50 (Splenocyte) was 88.8 µM, the inhibition at 50 µM [1] was 98.3% and the inhibition at 25 µM [2] was 93.6%. For the same compound, the inhibition at 12.5 µM [3] was 59.6%, the inhibition at 6.25 µM [4] was 29.6% and the IC50 [5] was 8.69 µM. For the same compound, the inhibition (CD4-positive T cell [6]) was “Active”, the inhibition (CD4-positive T cell [7]) was “Active” and the inhibition (CD4-positive T cell [8]) was “Active”. For the same compound, the inhibition (CD4-positive T cell [9]) was “inactive”, the Activity (Th17 [10]) was “Active” and the Activity (Treg cell [11]) was “Dose-dependent effect”. For the same compound, the Activity (Th17 [12]) was “Active”, the Activity (Th1) was “Active” and the Activity (Treg cell [13]) was “Active”. The Activity (Treg cell [14]) was “Dose-dependent effect”, the inhibition [15] was “Active” and the inhibition [16] was “Active”. The inhibition (Mus musculus [17]) was “Active”, the inhibition (Mus musculus [18]) was “Active” and the inhibition [19] was “Active”. The Activity (Mus musculus [20]) was “Active”, the Activity (Mus musculus [21]) was “Active” and the Activity (Mus musculus [22]) was “Active”. The Activity (Mus musculus [23]) was “Active”, the Activity (Mus musculus [24]) was “Active” and the Activity (Mus musculus [25]) was “Active”. For the same compound, the Activity (Mus musculus [26]) was “Active”, the Activity (Mus musculus [27]) was “Active” and the Activity (Mus musculus [28]) was “Active”. For the same compound, the Activity (Mus musculus [29]) was “Active”, the Activity (Mus musculus [30]) was “Active” and the Activity (Mus musculus [31]) was “Active”. For the same compound, the Activity (Mus musculus [32]) was “Active”, the Activity (Mus musculus [33]) was “Active” and the Activity (Mus musculus [34]) was “Active”. The Activity (Mus musculus [35]) was “Active”, the Activity (Mus musculus [36]) was “inactive” and the Activity (CD4-positive T cell [37]) was “Active”. The Activity (CD4-positive T cell [38]) was “Active” and the Activity (CD4-positive T cell [39]) was “Active”.
Work on `CC(=O)O[C@@H]1C[C@@]23C[C@@]24CC[C@H](O[C@@H]2O[C@H](CO)[C@H](O)[C@H](O)[C@H]2O)C(C)(C)[C@@H]4CC=C3[C@]2(C)C[C@@]3(O)O[C@H](C(=O)[C@H]4OC4(C)C)[C@@H](C)[C@@H]3[C@@]12C` yielded an inhibition at 50 µM [1] of 98.6%, an inhibition at 25 µM [2] of 68.3% and an inhibition at 12.5 µM [3] of 52.4%. The inhibition at 6.25 µM [4] was 8.9% and the IC50 [5] was 14.3 µM.
In the case of `C[C@@H]1C[C@H]([C@@H](O)C(C)(C)O)O[C@]2(O)[C@@H](O)[C@@]3(C)C4=CC[C@H]5C(C)(C)[C@@H](O[C@@H]6O[C@H](CO)[C@H](O)[C@H](O)[C@H]6O)CC[C@@]56C[C@@]46CC[C@]3(C)[C@@H]12`, the inhibition at 50 µM [1] is reported as 99.6%, the inhibition at 25 µM [2] is reported as 74.1% and the inhibition at 12.5 µM [3] is reported as 51.5%. It also gave an inhibition at 6.25 µM [4] of 10.3% and an IC50 [5] of 18.3 µM.
For `CC(=O)O[C@H]([C@H]1C[C@@H](C)C2=C(O1)[C@@H](O)[C@@]1(C)[C@@H]3CC[C@H]4C(C)(C)[C@@H](O[C@@H]5O[C@H](CO)[C@H](O)[C@H](O)[C@H]5O)CC[C@@]45C[C@@]35CC[C@]21C)C(C)(C)O`, the inhibition at 50 µM [1] was 96.8%, the inhibition at 25 µM [2] was 68.3% and the inhibition at 12.5 µM [3] was 21.3%. For the same compound, the inhibition at 6.25 µM [4] was 10.2% and the IC50 [5] was 14.6 µM.
`CC(=O)O[C@H]([C@H]1C[C@@H](C)C2=C(O1)[C@@H](O)[C@@]1(C)C3=CC[C@H]4C(C)(C)[C@@H](O[C@@H]5O[C@H](CO)[C@H](O)[C@H](O)[C@H]5O)CC[C@@]45C[C@@]35CC[C@]21C)C(C)(C)O` showed an inhibition at 50 µM [1] of 96.6%, an inhibition at 25 µM [2] of 92.1% and an inhibition at 12.5 µM [3] of 54.3%. The inhibition at 6.25 µM [4] was 21.6% and the IC50 [5] was 12.6 µM.
Compound `CC(=O)O[C@@H]1C[C@@]23C[C@@]24CC[C@H](O[C@@H]2OC[C@@H](O)[C@H](O)[C@H]2O)C(C)(C)[C@@H]4CC=C3[C@]2(C)C[C@]3(O)O[C@H](C(=O)[C@@H]4OC4(C)C)[C@@H](C)[C@@H]3[C@@]12C` has an inhibition at 50 µM [1] of 99.1%, an inhibition at 25 µM [2] of 82.6% and an inhibition at 12.5 µM [3] of 24.6%. It also gave an inhibition at 6.25 µM [4] of 5.3% and an IC50 [5] of 17.6 µM.
